Experimental findings from patent US7956216B2, “Alpha-helical mimetics” (The Walter and Eliza Hall Institute of Medical Research, priority 2006, dated 2011) are described below.

Experiment [1] has as its target GST tagged Mcl-1 protein (Homo sapiens, UniProt Q07820). Description: Alphascreen GST competition assay, Mcl-1 vs biotinylated Bak BH3 peptide. To be noted: competition with biotinylated Bak BH3 peptide (4.0 nM), Mcl-1 0.4 nM; n.b. = not binding in the assay conditions. (In general: Alpha assays give light when donor and acceptor beads are brought close together.)
In experiment [2] the target is T1, GST tagged Bcl-xL ΔC25 protein (Homo sapiens, UniProt Q07817).
T1 construct: GST tagged Bcl-xL ΔC25 protein
Description: Alphascreen GST competition assay, Bcl-xL vs biotinylated Bim BH3-26 peptide. As to conditions: competition with biotinylated Bim BH3-26 peptide (5.0 nM), Bcl-xL 0.6 nM, n.b. = not binding in the assay conditions; for IC50: read-out: Bcl-xLΔ25 IC50.

The target in experiment [3] is T2, GST tagged Bclw ΔC29 protein (Homo sapiens, UniProt Q92843).
T2 construct: GST tagged Bclw ΔC29 protein
T2 sequence (Q92843 1-164 limits assumed): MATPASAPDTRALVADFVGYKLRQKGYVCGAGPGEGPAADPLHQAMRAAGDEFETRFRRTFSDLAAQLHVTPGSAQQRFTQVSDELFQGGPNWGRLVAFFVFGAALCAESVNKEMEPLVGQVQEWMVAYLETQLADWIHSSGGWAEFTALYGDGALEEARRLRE
In words: Alphascreen GST competition assay, Bcl-w vs biotinylated Bim BH3-26 peptide. Type of experiment: binding. To be noted: for IC50: read-out: Bcl-wΔ29 IC50.

Where [4] appears, read: competition with biotinylated Bim BH3-26 peptide (3.0 nM), Bcl-w 0.05 nM, n.b. = not binding in the assay conditions.
Where [5] appears, read: footnote a: tested in a separate experiment.

Where two headings read alike, the source gives them in different places.

Chain of GST tagged Mcl-1 protein (Q07820 whole entry): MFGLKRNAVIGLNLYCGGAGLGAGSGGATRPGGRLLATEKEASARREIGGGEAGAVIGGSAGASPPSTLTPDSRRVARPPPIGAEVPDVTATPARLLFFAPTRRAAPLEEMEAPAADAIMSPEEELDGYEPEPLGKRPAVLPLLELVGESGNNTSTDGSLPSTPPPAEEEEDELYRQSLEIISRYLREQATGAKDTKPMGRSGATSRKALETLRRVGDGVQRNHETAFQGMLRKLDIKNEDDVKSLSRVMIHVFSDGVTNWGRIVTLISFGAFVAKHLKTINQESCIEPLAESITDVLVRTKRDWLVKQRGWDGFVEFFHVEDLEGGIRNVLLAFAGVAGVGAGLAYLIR
T1 sequence (Q07817 1-208 limits assumed): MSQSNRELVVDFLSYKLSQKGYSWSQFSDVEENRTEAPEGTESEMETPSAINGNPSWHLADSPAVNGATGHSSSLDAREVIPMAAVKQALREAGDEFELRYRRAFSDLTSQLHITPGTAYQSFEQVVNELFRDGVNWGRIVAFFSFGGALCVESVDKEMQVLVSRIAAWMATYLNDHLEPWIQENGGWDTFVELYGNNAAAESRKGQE

Regarding `CCCN(C(=O)N[C@@H](CSCc1ccccc1)C(=O)O)C(=O)c1ccc(/C=C/c2ccccc2)cc1` [(86)], the “Mcl-1 IC50 (μM)” value in experiment [1] is recorded as “n.b.^b”. As usually defined, the IC50 is the concentration at which inhibition is half-maximal. Regarding `CCCN(C(=O)N[C@@H](CSCc1ccc(OC)cc1)C(=O)O)C(=O)c1cccc(C#Cc2ccccc2)c1` [(115)], in experiment [2], the IC50 is 32 µM. As for `CCCN(C(=O)N[C@@H](CSCc1ccccc1)C(=O)O)C(=O)c1cccc(C#Cc2ccc(Br)cc2)c1` [(134)], the figures for the IC50 in experiment [1] and in experiment [2] were 181 µM and 51 µM, respectively.

`CCCN(C(=O)N[C@@H](CSCC(C)C)C(=O)O)C(=O)c1cccc(C#Cc2cccc(F)c2)c1` [(140)]: the “Mcl-1 IC50 (μM)” value in experiment [1] was “n.b.^b”. For `CCCN(C(=O)CCCc1ccccc1)C(=O)N[C@@H](CSCc1ccccc1)C(=O)O` [(106)], the IC50 worked out at 102 µM in experiment [3] (setting [4]), 251 µM in experiment [1] and 182 µM in experiment [2].

Turning to `O=C([C@H](CSCc1ccccc1)NC(=O)N(Cc1cccc2ccccc12)C(=O)c1cccc(-c2ccc(F)cc2)c1)N1CCOCC1` [(72)], the “Bcl-wΔ29 IC50 (μM)” value in experiment [3] (setting [4]) is “n.b.^b”.

As for `CCCN(C(=O)N[C@@H](CSCC(C)C)C(=O)O)C(=O)c1cccc(C#Cc2ccccc2OC)c1` [(146)], in experiment [1], the “Mcl-1 IC50 (μM)” value is “n.b.^b”.

Regarding `CCCN(C(=O)N[C@@H](CSCC(C)C)C(=O)O)C(=O)c1cccc(C#Cc2ccncc2)c1` [(150)], the “Bcl-xLΔ25 IC50 (μM)” value in experiment [2] is listed as “n.b.^b”. As for `O=C(O)[C@H](CSCc1ccccc1)NC(=O)N(CC1CCCCC1)C(=O)c1cccc(-c2ccccc2)c1` [(9)], the IC50 in experiment [3] (setting [5]) is 14 µM.

Consider `O=C(O)[C@H](CSCc1ccccc1)NC(=O)N(Cc1ccc(Cl)c(Cl)c1)C(=O)c1ccc(-c2ccccc2)cc1` [(85)], for which, in experiment [2], the “Bcl-xLΔ25 IC50 (μM)” value is reported as “n.b.^b”. Turning to `CCCN(C(=O)N[C@@H](CSCC(C)CC)C(=O)O)C(=O)c1cccc(C#Cc2ccccc2)c1` (stereo partly shown) [(125)], in experiment [2], the IC50 stood at 44 µM.

Consider `CCCN(C(=O)N[C@@H](CSC(C)C)C(=O)O)C(=O)c1cccc(C#Cc2ccccc2)c1` [(92)], for which the “Mcl-1 IC50 (μM)” value in experiment [1] is “n.b.^b”. `CCCN(C(=O)N[C@@H](CSCc1ccccc1)C(=O)O)C(=O)c1cccc(CCc2ccccc2)c1` [(88)]: the values for the IC50 in experiment [3] (setting [4]), in experiment [1] and in experiment [2] were 49 µM, 154 µM and 51 µM, respectively.

On to `CCCN(C(=O)N[C@@H](CSCc1ccccc1)C(=O)O)C(=O)c1cccc(/C=C/c2ccccc2)c1` [(87)], for which the half-inhibitory concentration (IC50) was 99 µM in experiment [3] (setting [4]), 161 µM in experiment [1] and 151 µM in experiment [2]. For the compound `CC(C)CCN(C(=O)N[C@@H](CSCc1ccccc1)C(=O)O)C(=O)c1ccc(-c2ccccc2)cc1` [(42)], in experiment [3] (setting [4]), the IC50 amounted to 49 µM. For `CCCN(C(=O)N[C@@H](CSCC(C)C)C(=O)NS(=O)(=O)c1cccc(-c2ccccc2)c1)C(=O)c1cccc(C#Cc2ccccc2)c1` [(155)], the 50% inhibitory concentration (IC50) in experiment [2] worked out at 53 µM. Consider `CCCN(C(=O)N[C@@H](CSCCCc1ccccc1)C(=O)O)C(=O)c1cccc(C#Cc2ccccc2)c1` [(95)], for which the IC50 in experiment [3] (setting [4]) came to 35 µM; in experiment [1], 94 µM; in experiment [2] it was 73 µM. `O=C(O)[C@H](CSCc1ccccc1)NC(=O)N(C(=O)c1cccc(-c2ccccc2)c1)C1CCCCC1` [(10)]: in experiment [3] (setting [5]), the IC50 was determined as 26 µM. Take `CCCN(C(=O)NCC(=O)O)C(=O)c1cccc(-c2ccccc2)c1` [(71)]: the “Bcl-wΔ29 IC50 (μM)” value in experiment [3] (setting [4]) is “n.b.^b”.
